# Measurements from patent publication US11660338B2, “Particles comprising a shell with RNA” (BIONTECH SE, priority 2013, dated 2023).
# System: Vγ9Vδ2 T cells
# Conditions: 7-day co-culture, 5 μM ZA, 10 U/mL IL-2; mean of two donors
structure (smiles),measurement,value
O=P(O)(O)C(O)(Cn1ccnc1)P(=O)(O)O [zoledronic acid],expansion rate of Vγ9δ2 T cells,about 15 fold
